According to patent publication US8592446B2, “[1,10]-phenanthroline derivatives for the treatment of neurodegenerative or haematological diseases” (Noscira, S.A., priority 2007, dated 2013):
Read-outs that look alike come from different tables or passages of the source.

Assays:
[1] = tested on: SH-SY5Y human neuroblastoma cells; assay: Protection against 6-OHDA-induced cell death, condition B (no fetal bovine serum); assay type: cell-based; details: preincubated 1 hour, 6-OHDA 50 μM 24 hours, read-out: Protect. 6-OHDA (−FBS) (minimum concentration with neuroprotective effect)
Source text: (§1) The aim of this experiment is to determine the protective effect of the compounds of formula (1) against the toxicity caused by 6-OHDA. This toxin induces a cell death similar to which occurs in Parkinson's disease, destroying dopaminergic neurons (“MPTP and 6-hydroxydopamine-induced neurodegeneration as models for Parkinson's disease: neuroprotective strategies”; Grunblatt E, et al.; J Neurol. 2000 Apr; 247 Suppl 2:II95-102).
(§2) Two or three days before the experiment, the SH-SY5Y human neuroblastoma cells are seeded into 96-well culture plate at a density of 10^4 cells/well. Cells are exposed to the treatment with 6-OHDA and, finally, cell death is measured by LDH quantification. As positive control we used NAC.
• B) NAC and the compound of formula (I) are preincubated during 1 hour before the treatment with 6-OHDA 50 μM during 24 hours. The assay is performed in a medium without any fetal bovine serum.
(§3) For each compound the minimum concentration of compound of formula (I) at which a neuroprotective effect is shown.

[2] = Chelating ability with Fe(II) (absorbance spectra); assay type: physicochemical; details: for Formation constant: Fe (II) complex 1:3 (ML3); for Dissociation grade / Stoichiometry / ε approx.: Fe (II) complex; for Ability to complex Fe (II) (spectrum of mixture vs sum of individual spectra): PBS 10 mM, pH 7.4 or 8, FIGS. 2-5
Description: FIG. 2 is an absorbance spectrum of the complex Fe(II)-Compound 4. Concentration of Fe(II) and Compound 4, 200 μM, PBS 10 mM, pH 8.
FIG. 3 is an absorbance spectrum of the complex Fe(II)-Compound 7. Concentration of Fe(II) and Compound 7 , 400 μM, PBS 10 mM, pH 8.
FIG. 4 is an absorbance spectrum of the complex Fe(II)-Compound 8. Concentration of Fe(II) and Compound 8, 200 μM, PBS 10 mM, pH 7.4.
FIG. 5 is an absorbance spectrum of the complex Fe(II)-Compound 10. Concentration of Fe(II) and Compound 10, 100 μM, PBS 10 mM, pH 7.4.
(§4) Therefore, it may be observed that the compounds of formula (I) have a high affinity to Fe (II) in comparison to the rest of metalic ions tested.

[3] = Chelating ability with Zn (II) (absorbance spectra); assay type: physicochemical; details: for Ability to complex Zn(II): PBS 10 mM, pH 7.4, FIGS. 8-11; for Formation constant: Zn (II) complex 1:2 (ML2), pH 7.4, expecting time 24 h (7) or 4 h (8, 10); for Dissociation grade / Stoichiometry / ε approx.: Zn (II) complex, pH 7.4, expecting time 24 h (4, 7) or 4 h (8, 10)
Description: FIG. 8 represents the absorbance spectra of the complex Zn(II)-Compound 4. Concentration 200 μM, PBS 10 mM, pH 7.4.
Concentration 180 μM, PBS 10 mM, pH 7.4.
Concentration 100 μM, PBS 10 mM, pH 7.4.
Concentration 20 μM, PBS 10 mM, pH 7.4. […]

[4] = tested on: SH-SY5Y human neuroblastoma cells; assay: Protection against 6-OHDA-induced cell death, condition A (10% foetal bovine serum); assay type: cell-based; details: preincubated 2 hours, 6-OHDA 75 μM 16 hours, read-out: Protect. 6-OHDA (+ FBS) (minimum concentration with neuroprotective effect)
Source text: as §1, §2
• A) NAC and the compound of formula (I) are preincubated during 2 hours before the treatment with 6-OHDA 75 μM during 16 hours. The assay is performed in medium containing 10% Foetal bovine serum.
as §3

[5] = Chelating ability with Cu (II) (absorbance spectra); assay type: physicochemical; details: 200 μM, PBS 10 mM, pH 7.4, FIG. 6
Description: FIG. 6 depicts the absorbance spectra of the mixture of Cu (II) and each of the quelating ligands (Compound 4, Compound 7, Compound 8). Concentration of Cu(II) and all compounds 200 μM, PBS 10 mM, pH 7.4.
FIG. 7 is the absorbance spectra of the complex Cu(II)-Compound 10. Concentration 200 μM, PBS 10 mM, pH 7.4.
as §4

[6] = Screening pharmacokinetic study, plasma and brain (LC-MS/MS); assay type: in vivo, mice (C57BL6/J); details: mice; for Kp / bioavailability / Tmax / half-life / AUC / Cmax: male, C57BL6/J, mouse; for Kp: brain and plasma
Description: The objective of this study is to evaluate the oral bioavailability and the plasmatic and brain pharmacokinetic parameters after oral and intravenous administration, thus determining if compounds of formula (I) are able to cross the blood brain barrier (BBB). […] Each compound was solved in appropriate excipients. In the case of oral administration, compound was administered by means of an oral gavage coupled to a syringe. In the intravenous administration animals, the test item was administered by a single injection with a syringe coupled to a 30 G needle.
Two animals were sacrificed (according to internal SOPs and following animal handling and welfare guidelines) at each selected extraction times (i.e. 30 min, 1 h, 2 h, 4 h, 6 h, 8 h and 24 hours after administration), and from each animal, both brain and blood samples were obtained. Plasma was extracted by centrifugation of the blood samples. Each sample time represents two male mice from which samples were obtained.
The method for the analysis of plasma and brain samples involved isolation of the analyte from the biological matrix by protein precipitation or solid-phase extraction followed by analysis using LC-MS/MS. Limits of quantification for these compounds were in the order of 2-10 ng/mL. The software Winnonlin professional version 5.2 was used for the calculation of pharmacokinetic parameters.
In the following tables, the abbreviations have the meaning indicated below: • AUC=Area under the curve • T1/2=Half-life • Tmax=the time after administration of a drug when the maximum plasma concentration is reached; when the rate of absorption equals the rate of elimination • Cmax=maximum plasma concentration of the drug • V. Adm. and Vol. Adm.=volume of administration

[7] = Chelating ability with Fe (III) (absorbance spectra); assay type: physicochemical; details: PBS 10 mM, pH 7.4, ligand and Fe(III) 200 μM, FIG. 1
Description: FIG. 1 is an absorbance spectrum of compounds 4, 7, 8 and 10 in absence and presence of Fe(III). PBS 10 mM, pH 7.4. Concentration of ligand and Fe(III), 200 μM.
Only one line is observed, as the spectra are overlapping (see FIG. 1).

[8] = pH 8*, expecting time 30 min (4) or 60 min (7)
[9] = iv, brain AUC relative to plasma AUC, intravenous route, group 1-2 mg/kg, read-out: % AUC
[10] = iv, brain Cmax relative to plasma Cmax, intravenous route, group 1-2 mg/kg, read-out: % Cmax
[11] = po, 20 mg/kg, brain AUC relative to plasma AUC, 20 mg/kg oral route, read-out: % AUC
[12] = po, 20 mg/kg, brain Cmax relative to plasma Cmax, 20 mg/kg oral route, read-out: % Cmax
[13] = plasma, 20 mg/kg oral route (low dose)
[14] = intravenous route, group 1-2 mg/kg (Compound 4, 8: 1.00; 7: 1.20; 10: 2.00 mg/Kg), brain
[15] = intravenous route, group 1-2 mg/kg (Compound 4, 8: 1.00; 7: 1.20; 10: 2.00 mg/Kg), plasma
[16] = pH 7.4, expecting time Immediate

Row | Ability to complex Fe (II) (spectrum of mixture vs sum of individual spectra) [2] | Ability to complex Zn(II) [3] | Dissociation grade [3] | Stoichiometry [3] | ε approx. [3] [L/mol/cm] | Kp [6, 9] | Kp [6, 10] | Kp [6, 11] | Kp [6, 12] | bioavailability [6, 13] [%] | Tmax ([6]; 20 mg/kg oral route, brain) [min] | half-life ([6]; 20 mg/kg oral route, brain) [min] | AUC ([6]; 20 mg/kg oral route, plasma) [ng·h/mL] | Cmax ([6]; 20 mg/kg oral route, plasma) [ng/mL] | Tmax ([6]; 20 mg/kg oral route, plasma) [min] | half-life ([6]; 20 mg/kg oral route, plasma) [min] | Structure (SMILES) | minimal effective concentration [1] [µM] | Formation constant [3] | minimal effective concentration [4] [µM] | Ability to complex Cu (II) (spectrum of mixture vs sum of individual spectra) [5] | further results
1 | able to complex the Fe (II) | complexed with Zn(II) to an extent | 13.4 ± 0.7 | 1:2 (ML2) | ~840 | 1.04 | 3.71 | 0.278 | 0.417 | 7.11 | 240 | 43.8 | 378 | 106 | 18 | 99.6 | CC(C)Sc1cc(/C=N/O)nc2c1ccc1cccnc12 [Compound 7, 4-Isopropylsulfanyl-[1,10]phenanthroline-2-carbaldehyde oxime] | 0.5 | 2.2 ± 0.6 · 10^10 l^2/mol^2 | 0.05 | none of the ligands are able to complex the Cu (II) | Formation constant [2, 8]: 2.0 ± 0.6 · 10^15; Dissociation grade [2, 8]: 0.023 ± 0.002; Stoichiometry [2, 8]: 1:3 (ML3); ε approx. [2, 8]: ~280 L/mol/cm; bioavailability ([6]; plasma, 200 mg/kg oral route (high dose)): 3.19%; AUC ([6]; 200 mg/kg oral route, plasma): 1700 ng·h/mL; Cmax ([6]; 200 mg/kg oral route, plasma): 1210 ng/mL; Tmax ([6]; 200 mg/kg oral route, plasma): 30 min; Tmax [6, 14]: 4.8 min; AUC [6, 15]: 319 ng·h/mL; Cmax [6, 15]: 104 ng/mL; Tmax [6, 15]: 60 min; half-life [6, 15]: 268 min; Cmax Brain ([6]; 20 mg/kg oral route, brain): 19.62 ng/g; Cmax Brain [6, 14]: 386.10 ng/g; Ability to complex Fe (III) (change in absorbance spectra) [7]: no change in the absorbance spectra
2 | able to complex the Fe (II) | complexed with Zn(II) to an extent | 7.7 ± 0.6 | 1:2 (ML2) | ~7100 | 0.0439 | 0.0524 | 0.0418 | 0.0621 | 6.67 | 15 | 108 | 325 | 396 | 15 | 234 | COCCOc1cc(/C=N/O)nc2c1ccc1cccnc12 [Compound 8, 4-(2-Methoxy-ethoxy)-[1,10]phenanthroline-2-carbaldehyde oxime] | 0.5 | 1.4 ± 0.6 · 10^11 l^2/mol^2 | 0.05 | none of the ligands are able to complex the Cu (II) | Formation constant [2, 16]: 4.0 ± 1.3 · 10^17; Dissociation grade [2, 16]: 0.022 ± 0.006; Stoichiometry [2, 16]: 1:3 (ML3); ε approx. [2, 16]: ~1600 L/mol/cm; Tmax [6, 14]: 15 min; half-life [6, 14]: 10.8 min; AUC [6, 15]: 244 ng·h/mL; Cmax [6, 15]: 690 ng/mL; Tmax [6, 15]: 15 min; half-life [6, 15]: 66.6 min; Cmax Brain ([6]; 20 mg/kg oral route, brain): 24.60 ng/g; Cmax Brain [6, 14]: 36.10 ng/g; Ability to complex Fe (III) (change in absorbance spectra) [7]: no change in the absorbance spectra
